Assay results from US20090172831A1, “Methods for the production of plants resistant to HPPD herbicides” (Syngenta Limited, priority 2000, published 2009).

Experiments:
[1] = tested on: tobacco plants transformed to express wheat HPPD; test: Tolerance of tobacco transformed with wheat HPPD to herbicides; format: in vivo; conditions: in vivo
Text: These constructs were all transformed into Agrobacterium tumefaciens strain LBA4404, which in turn was used to transform tobacco, using methodology described previously.
Explants (i.e. a leaf plus short segment of stem containing the auxiliary bud) are placed into MS agar (+3% sucrose) containing various concentrations of mesotrione (see above) from 0.02 to 2 ppm.

[2] = tested on: tobacco plants transformed to express wheat HPPD; test: Glasshouse spray test, visible damage; format: in vivo
Experimental: (§1) Plants are 1) untransformed tobacco plants variety Samsun expressing the endogenous tobacco (control) HPPD gene, 2) tobacco plants transformed to express Pseudomonas HPPD according to the examples herein and 3) tobacco plants transformed to express Wheat HPPD also according to the examples herein.
(§2) Large numbers of plants are grown from seed in small pots in the glasshouse to the 5-7 leaf seedling stage and sprayed with a range of doses, suitably from 0.0 to 2000 g/ha, of different HPPD-inhibitor herbicides selected from compounds of Formula 1, 2, 3 and 4. Treatments are suitably Formulated in, for example, deionised water+0.5% Turbocharge™ surfactant or, alternatively, 50% acetone/water and applied at […] to a dozen or more replicates of each line and at each spray rate (where the plants were T1 plants (selfed progeny of primary transformants) and still segregating at normally 1:2:1) or, where, homozygous, 3-6 plants. The extent of visible damage in terms of bleaching of meristems and leaves, eventual necrosis and stunting of growth relative to unsprayed controls is assessed at ˜1 and 3 weeks after treatment. Data from susceptible segregants are excluded from the analysis. In summary, results obtained are as follows.

[3] = tested on: untransformed tobacco plants variety Samsun; test: Glasshouse spray test, visible damage; format: in vivo; conditions: spray 0.0 to 2000 g/ha, assessed ~1 and 3 weeks after treatment
Experimental: as §1, §2

[4] = tested on: tobacco plants transformed with Avena sativa 4-HPPD gene; test: Tolerance of tobacco transformed with Avena sativa HPPD to herbicides; conditions: in vivo
Text: The structure of the resulting vector is shown schematically in FIG. 4.
The 4-HPPD plant expression cassette is then ligated in to the binary vector pBin19 restricted with Hind III and EcoRI and transformed into E. coli TOP10 cells (Invitrogen). This binary vector is then transformed into tobacco using methods well known in the art and, for example, as described elsewhere herein.

Arabidopsis HPPD = molecular target: T1, Arabidopsis HPPD (Arabidopsis thaliana, UniProt P93836); test: Dissociation of enzyme/inhibitor complexes by exchange with 14C-labelled inhibitor (koff; Kd = koff/kon); format: binding
T1 construct: made in house; host or cells: E. coli BL21 (DE3) codon+ RP
T1 sequence (P93836 1-445): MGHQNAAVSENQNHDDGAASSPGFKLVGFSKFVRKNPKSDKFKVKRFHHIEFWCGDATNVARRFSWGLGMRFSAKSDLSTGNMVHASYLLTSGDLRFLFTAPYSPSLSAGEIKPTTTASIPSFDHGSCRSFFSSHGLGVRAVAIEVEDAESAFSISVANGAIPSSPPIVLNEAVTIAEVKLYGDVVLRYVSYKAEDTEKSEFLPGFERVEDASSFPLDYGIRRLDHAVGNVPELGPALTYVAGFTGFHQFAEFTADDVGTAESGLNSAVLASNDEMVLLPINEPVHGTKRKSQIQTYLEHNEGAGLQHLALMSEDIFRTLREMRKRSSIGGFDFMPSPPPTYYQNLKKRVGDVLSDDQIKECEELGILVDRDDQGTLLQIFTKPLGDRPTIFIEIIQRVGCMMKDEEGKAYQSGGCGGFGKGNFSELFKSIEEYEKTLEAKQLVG
Experimental: It will be appreciated that many suitable methods known in the art for determining such low koff values are suitable for working the current invention. These include measuring rates of exchange of radio or otherwise labelled inhibitors either with or away from the enzyme inhibitor complex. For example enzyme inhibitor complexes can readily be prepared by incubating HPPD preparations with labelled or unlabelled inhibitor and then, after suitable periods, optionally rapidly separating the thus formed enzyme inhibitor complex from excess inhibitor by any suitable method such as ultrafiltration, binding to filters or exchange down a gel filtration column. Exchange reactions with the, thus prepared enzyme inhibitor complex is then initiated by addition of, as appropriate, excess labelled or unlabelled inhibitor. […] Many methods such as radiometric, fluorimetric, NMR, fluorescence depolarisation, EPR, Mossbauer, UV/VIS spectrophotometry etc. or phonon resonance can, in principle, be used to monitor the enzyme/ligand exchange reactions and, particularly in this case where the enzyme contains an iron atom at the ligand binding site. Optionally, the monitoring method may be continuous (as, for example, with scintillation proximity/bead-based methods) or, discontinuous, based upon collection of data at various timepoints wherein samples are removed and the bound and unbound label components rapidly separated and quantitated.
(§3) Values of koff can suitably be calculated by computer fitting based upon is numerical integration of the exchange data along with information on the active-site concentration of HPPD and upon kon values obtained as described below. […] In any event, koff values are always here calculated from the rate of the major slow exchange reaction.
^14C mesotrione is of specific activity 1.12 GBq/mmol. […] Following this initial binding reaction, exchange reactions are initiated by addition of cold mesotrione to a final concentration of 60 μM and 200 μl aliquots removed at various times to rapid chromatography down a NAP5 gel filtration column equilibrated in 50 mM BTP at pH 7 containing 0.1 M KCl, separation into fractions containing protein-bound or free radiolabel and liquid scintillation counting.
Nevertheless, here, for practical purposes, koff values are always here calculated from the rate of the major slow exchange reaction.
Not all test inhibitors are readily available in a radiolabelled form.

Wheat HPPD = Wheat HPPD (Triticum aestivum, UniProt A0A3B6NLC6); test: as above; format: binding
Text: (§4) Herbicidal inhibitors of HPPD are found here to have generally low values of koff (in the range less than 0.0003 s^−1, often less than 0.000001 s^−1). It will be appreciated that many suitable methods known in the art for determining such low koff values are suitable for working the current invention. These include measuring rates of exchange of radio or otherwise labelled inhibitors either with or away from the enzyme inhibitor complex. For example enzyme inhibitor complexes can readily be prepared by incubating HPPD preparations with labelled or unlabelled inhibitor and then, after suitable periods, optionally rapidly separating the thus formed enzyme inhibitor complex from excess inhibitor by any suitable method such as ultrafiltration, binding to filters or exchange down a gel filtration column. Exchange reactions with the, thus prepared enzyme inhibitor complex is then initiated by addition of, as appropriate, excess labelled or unlabelled inhibitor. HPPD preparations suitable for use in the methods of the current invention are relatively unpurified, buffer-exchanged, supernatant fractions of spun crude lysates of E. coli strains engineered to express the HPPD enzyme of interest at a level of, typically, about 0.25-10% of the total soluble protein. Many methods such as radiometric, fluorimetric, NMR, fluorescence depolarisation, EPR, Mossbauer, UV/VIS spectrophotometry etc. or phonon resonance can, in principle, be used to monitor the enzyme/ligand exchange reactions and, particularly in this case where the enzyme contains an iron atom at the ligand binding site. Optionally, the monitoring method may be continuous (as, for example, with scintillation proximity/bead-based methods) or, discontinuous, based upon collection of data at various timepoints wherein samples are removed and the bound and unbound label components rapidly separated and quantitated.
as §3, with “reaction. It will be appreciated that within the scope of the current invention many methods of making the desired kinetic comparisons are possible without explicit or rigorous determination of off rates but, based upon the same underlying principle, will achieve the same selection result.” for “reaction.”
The dissociation rates (off rates) of inhibitors selected from Formula 1 and/or 2 and/or 3 and/or 4 from the complexes that they form with test and control HPPD enzymes are suitably measured in a number of ways. Thus, for example, the rates of dissociation of mesotrione, a compound selected from Formula 1 and of the diketonitrile of isoxaflutole, a compound selected from Formula 3 from their respective complexes with, test, wheat HPPD and with, control, Arabidopsis HPPD are compared. The method and results from a typical test are as follows.
^14C mesotrione is of specific activity 1.12 GBq/mmol. This is ˜95% pure radiochemically by TLC and based upon the proportion of material tight-binding to HPPD. Arabidopsis and, (test), wheat HPPD are each diluted to a concentration of ˜0.45 and 0.54 μM, respectively into 1.6 ml of 50 mM Bis-Tris propane buffer at pH 7.0 containing 25% glycerol, 25 mM sodium ascorbate and 3 mg/l of bovine catalase (Sigma C3155˜50,000 units/mg) containing […] ^14C mesotrione and left to react at 25 C for 2.5-3 h. Following this initial binding reaction, exchange reactions are initiated by addition of cold mesotrione to a final concentration of 60 μM and 200 μl aliquots removed at various times to rapid chromatography down a NAP5 gel filtration column equilibrated in 50 mM BTP at pH 7 containing 0.1 M KCl, separation into fractions containing protein-bound or free radiolabel and liquid scintillation counting. […]

P. fluorescens HPPD = P. fluorescens HPPD (Pseudomonas fluorescens, UniProt A0ACG8AE61); test: as above; format: binding
Text: as §4
as §3, with “reaction. It will be appreciated that within the scope of the current invention many methods of making the desired kinetic comparisons are possible without explicit or rigorous determination of off rates but, based upon the same underlying principle, will achieve the same selection result. […]” for “reaction.”
Not all test inhibitors are readily available in a radiolabelled form. A more general method of measuring off rates is to first form the complex with unlabelled test inhibitor, to rapidly exchange the complex free of excess unlabelled inhibitor and to then start the exchange reaction by addition of an excess of a standard labelled inhibitor, the kinetic properties of which are already known. The reaction is then monitored and the relative proportions of bound and unbound label determined at various times. […] The latter is the method of choice when the rate of exchange is fast (t½<3 h).
In, variants of the above methods, off rates are measured either in the presence or absence of ˜25% v/v glycerol. In the presence of glycerol values obtained are generally ˜1.5-3× slower than in its absence although sometimes the change is outside this range or, even, in the other direction. Further examples of data obtained are depicted in the following Table 3.
Crude Extracts of recombinant E. coli strains expressing, in the one case, a control HPPD (from Arabidopsis) and, in the other, one or more test HPPD sequences are prepared as described in the preceding example. The titre of active sites and enzyme activity are also defined and measured as described in the preceding examples. […]

Avena HPPD = Avena HPPD (Avena sativa, UniProt A0ACD5V6K6); test: In vitro measurements of Avena HPPD (dissociation rate constants, Ki); format: binding; conditions: read-out: rate constants governing dissociation of the complexes
Sequence of Avena HPPD (A0ACD5V6K6 entry or part of it): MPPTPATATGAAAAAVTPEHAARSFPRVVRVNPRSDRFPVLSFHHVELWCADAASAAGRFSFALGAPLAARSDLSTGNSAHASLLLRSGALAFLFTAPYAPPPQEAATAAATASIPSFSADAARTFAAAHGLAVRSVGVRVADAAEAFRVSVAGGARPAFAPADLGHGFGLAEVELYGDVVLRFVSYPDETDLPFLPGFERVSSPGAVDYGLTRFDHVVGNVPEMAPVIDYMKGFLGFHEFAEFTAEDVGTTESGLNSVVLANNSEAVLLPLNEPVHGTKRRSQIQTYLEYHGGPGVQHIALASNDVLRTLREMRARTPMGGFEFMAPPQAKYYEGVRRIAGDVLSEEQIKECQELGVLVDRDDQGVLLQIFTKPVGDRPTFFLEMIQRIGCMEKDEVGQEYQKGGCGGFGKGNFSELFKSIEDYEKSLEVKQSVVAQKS

Sequence of P. fluorescens HPPD (A0ACG8AE61 entry or part of it): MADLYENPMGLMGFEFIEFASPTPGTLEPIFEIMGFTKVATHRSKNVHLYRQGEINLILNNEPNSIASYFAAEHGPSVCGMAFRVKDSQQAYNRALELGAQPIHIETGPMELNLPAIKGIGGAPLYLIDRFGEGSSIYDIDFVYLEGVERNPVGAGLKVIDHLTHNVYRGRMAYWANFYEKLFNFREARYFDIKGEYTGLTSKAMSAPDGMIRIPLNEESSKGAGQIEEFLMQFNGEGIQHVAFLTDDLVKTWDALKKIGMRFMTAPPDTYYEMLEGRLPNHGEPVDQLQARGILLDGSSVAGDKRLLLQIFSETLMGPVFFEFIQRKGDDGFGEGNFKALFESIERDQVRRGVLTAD
Sequence of Wheat HPPD (A0A3B6NLC6 entry or part of it): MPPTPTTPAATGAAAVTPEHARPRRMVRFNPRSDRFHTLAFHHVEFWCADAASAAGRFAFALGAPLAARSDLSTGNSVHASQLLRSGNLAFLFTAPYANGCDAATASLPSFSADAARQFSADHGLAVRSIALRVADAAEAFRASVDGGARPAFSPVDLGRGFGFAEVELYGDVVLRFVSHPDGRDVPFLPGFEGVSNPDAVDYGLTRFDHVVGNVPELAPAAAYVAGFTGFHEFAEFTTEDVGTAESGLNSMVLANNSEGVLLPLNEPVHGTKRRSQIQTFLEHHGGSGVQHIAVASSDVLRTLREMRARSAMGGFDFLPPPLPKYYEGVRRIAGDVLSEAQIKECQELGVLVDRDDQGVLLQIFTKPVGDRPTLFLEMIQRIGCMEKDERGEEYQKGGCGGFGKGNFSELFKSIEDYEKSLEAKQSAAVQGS

Row | SMILES | resistance of the transgenic plants compared with that to mesotrione [1] | fold less susceptible of mesotrione than of the named herbicide [2] | fold more susceptible of the herbicide than of mesotrione [3] | resistance of the transgenic plants compared with that to mesotrione [4] | Kd (Arabidopsis HPPD) [nM] | ratio Kd4/Kd1, structure V to structure I (Arabidopsis HPPD) | koff (Arabidopsis HPPD; − glycerol) [s⁻¹] | Kd (Wheat HPPD; Kd, without glycerol, Kd = koff/kon) [nM] | koff (Wheat HPPD; − glycerol) [s⁻¹] | ratio Kd4/Kd1, structure V to structure I (P. fluorescens HPPD) | Kd (P. fluorescens HPPD; without glycerol, Kd = koff/kon, read-out: Kd) [nM] | koff (P. fluorescens HPPD; − glycerol) [s⁻¹] | koff (Avena HPPD) [s⁻¹]
1 | CS(=O)(=O)c1cc(C(F)(F)F)ccc1C(=O)c1cnoc1C1CC1 [isoxaflutole, 5-cyclopropyl-4-(2-methylsulphonyl-4-trifluoromethylbenzoyl)-isoxazole] | substantially less resistant | 4-10 fold | 1-2 fold | substantially less resistant |  |  |  |  |  |  |  |  | 
2 | CC1(C)C(=O)C(C(=O)c2ccc(Cl)cc2[N+](=O)[O-])C(=O)C(C)(C)C1=O [Structure V, 2-[2-nitro-4-chlorobenzoyl]-4,4,6,6-tetramethylcyclohexane-1,3,5-trione] |  |  |  |  | 0.004 | 0.28 | 1.25e-06 | 0.011 | 4.2e-06 | > 4.3 | > 1.5 | > 0.0002 | < 4e-06
